{"source": "patent US11020395B2", "about": "“Cycloalkyl substituted triazole compounds as agonists of the APJ receptor” (AMGEN INC., priority 2016, dated 2021)", "note": "pEC50: −log10 of the molar value."}
{"target": "human APJ receptor (Homo sapiens (Human), UniProt P35414)", "sequence (P35414 whole entry)": "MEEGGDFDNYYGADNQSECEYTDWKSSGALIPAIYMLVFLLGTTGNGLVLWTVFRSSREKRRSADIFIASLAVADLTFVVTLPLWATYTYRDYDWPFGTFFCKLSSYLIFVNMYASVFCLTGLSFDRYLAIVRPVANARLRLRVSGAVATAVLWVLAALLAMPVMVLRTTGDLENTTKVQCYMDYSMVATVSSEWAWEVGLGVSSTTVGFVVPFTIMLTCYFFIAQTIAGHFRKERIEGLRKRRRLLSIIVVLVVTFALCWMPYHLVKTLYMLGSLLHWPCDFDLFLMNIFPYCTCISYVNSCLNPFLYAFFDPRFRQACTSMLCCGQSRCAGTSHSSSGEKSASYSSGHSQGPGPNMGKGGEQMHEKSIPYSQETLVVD", "assay": "[35S]GTPγS binding assay on membranes from CHO cells stably expressing human APJ receptor", "type": "biochemical", "details": "[35S]GTPγS SPA, read-out: Activity hAPJ SPA EC50 IP", "in_short": "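Agonist-stimulated [35S]GTPγS binding measured on membranes of a stable human APJ CHO line, 90 min at room temperature, with GDP, MgCl2 and NaCl levels optimized beforehand. Means of independent runs fitted by non-linear regression to give EC50.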"}
{"smiles": "COc1ncnc(OC)c1-n1c(NS(=O)(=O)[C@@H](C)[C@H](OC)c2ncc(Cl)cn2)nnc1[C@H]1CC[C@@H]1F", "note": "(single isomer, unassigned) [Example 182.0, (1R,2S)-1-(5-chloropyrimidin-2-yl)-N-(4-(4,6-dimethoxypyrimidin-5-yl)-5-((1R,2S)-2-fluorocyclobutyl)-4H-1,2,4-triazol-3-yl)-1-methoxypropane-2-sulfonamide or (1R,2S)-1-(5-chloropyrimidin-2-yl)-N-(4-(4,6-dimethoxypyrimidin-5-yl)-5-((1S,2R)-2-fluorocyclobutyl)-4H-1,2,4-triazol-3-yl)-1-methoxypropane-2-sulfonamide]", "pEC50": 8.00}
{"smiles": "COc1ncnc(OC)c1-n1c(NS(=O)(=O)[C@@H](C)[C@H](OC)c2ncc(Cl)cn2)nnc1[C@H]1CC[C@@H]1C", "note": "(single isomer, unassigned) [Example 187.0, (1R,2S)-1-(5-chloropyrimidin-2-yl)-N-(4-(4,6-dimethoxypyrimidin-5-yl)-5-((1S,2S)-2-methylcyclobutyl)-4H-1,2,4-triazol-3-yl)-1-methoxypropane-2-sulfonamide or (1R,2S)-1-(5-chloropyrimidin-2-yl)-N-(4-(4,6-dimethoxypyrimidin-5-yl)-5-((1R,2R)-2-methylcyclobutyl)-4H-1,2,4-triazol-3-yl)-1-methoxypropane-2-sulfonamide]", "pEC50": 8.06}
{"smiles": "COc1ncnc(OC)c1-n1c(NS(=O)(=O)[C@@H](C)[C@H](OC)c2ncc(Cl)cn2)nnc1[C@H]1CC[C@H]1C", "note": "(single isomer, unassigned) [Example 188.0, (1R,2S)-1-(5-chloropyrimidin-2-yl)-N-(4-(4,6-dimethoxypyrimidin-5-yl)-5-((1S,2R)-2-methylcyclobutyl)-4H-1,2,4-triazol-3-yl)-1-methoxypropane-2-sulfonamide or (1R,2S)-1-(5-chloropyrimidin-2-yl)-N-(4-(4,6-dimethoxypyrimidin-5-yl)-5-((1R,2S)-2-methylcyclobutyl)-4H-1,2,4-triazol-3-yl)-1-methoxypropane-2-sulfonamide]", "pEC50": 7.85}
{"smiles": "COc1cccc(OC)c1-n1c(NS(=O)(=O)[C@@H](C)[C@H](OC)c2ncc(C)cn2)nnc1[C@H]1C[C@H](Cl)C1", "note": "(single isomer, unassigned) [Example 191.0, (1R,2S)-N-(5-((1r,3S)-3-chlorocyclobutyl)-4-(2,6-dimethoxyphenyl)-4H-1,2,4-triazol-3-yl)-1-methoxy-1-(5-methylpyrimidin-2-yl)propane-2-sulfonamide or (1R,2S)-N-(5-((1s,3R)-3-chlorocyclobutyl)-4-(2,6-dimethoxyphenyl)-4H-1,2,4-triazol-3-yl)-1-methoxy-1-(5-methylpyrimidin-2-yl)propane-2-sulfonamide]", "pEC50": 8.12}
{"smiles": "COc1cccc(OC)c1-n1c(NS(=O)(=O)[C@@H](C)[C@H](OC)c2ncc(C)cn2)nnc1[C@H]1C[C@H](Cl)C1", "note": "(single isomer, unassigned) [Example 192.0, (1R,2S)-N-(5-((1r,3S)-3-chlorocyclobutyl)-4-(2,6-dimethoxyphenyl)-4H-1,2,4-triazol-3-yl)-1-methoxy-1-(5-methylpyrimidin-2-yl)propane-2-sulfonamide or (1R,2S)-N-(5-((1s,3R)-3-chlorocyclobutyl)-4-(2,6-dimethoxyphenyl)-4H-1,2,4-triazol-3-yl)-1-methoxy-1-(5-methylpyrimidin-2-yl)propane-2-sulfonamide]", "pEC50": 8.54}
{"smiles": "COc1cccc(OC)c1-n1c(NS(=O)(=O)[C@@H](C)[C@H](C)c2ncc(C)cn2)nnc1[C@H]1C[C@H](Cl)C1", "note": "(single isomer, unassigned) [Example 193.0, (2S,3R)-N-(5-((1r,3S)-3-chlorocyclobutyl)-4-(2,6-dimethoxyphenyl)-4H-1,2,4-triazol-3-yl)-3-(5-methylpyrimidin-2-yl)butane-2-sulfonamide or (2S,3R)-N-(5-((1s,3R)-3-chlorocyclobutyl)-4-(2,6-dimethoxyphenyl)-4H-1,2,4-triazol-3-yl)-3-(5-methylpyrimidin-2-yl)butane-2-sulfonamide]", "pEC50": 8.00}
{"smiles": "COc1cccc(OC)c1-n1c(NS(=O)(=O)[C@@H](C)[C@H](C)c2ncc(C)cn2)nnc1[C@H]1C[C@H](Cl)C1", "note": "(single isomer, unassigned) [Example 194.0, (2S,3R)-N-(5-((1r,3S)-3-chlorocyclobutyl)-4-(2,6-dimethoxyphenyl)-4H-1,2,4-triazol-3-yl)-3-(5-methylpyrimidin-2-yl)butane-2-sulfonamide or (2S,3R)-N-(5-((1s,3R)-3-chlorocyclobutyl)-4-(2,6-dimethoxyphenyl)-4H-1,2,4-triazol-3-yl)-3-(5-methylpyrimidin-2-yl)butane-2-sulfonamide]", "pEC50": 8.60}
{"smiles": "COc1cccc(OC)c1-n1c(NS(=O)(=O)[C@@H](C)[C@H](OC)c2ncc(Cl)cn2)nnc1[C@H]1C[C@@](C)(F)C1", "note": "(single isomer, unassigned) [Example 195.0, (1R,2S)-1-(5-chloropyrimidin-2-yl)-N-(4-(2,6-dimethoxyphenyl)-5-((1s,3R)-3-fluoro-3-methylcyclobutyl)-4H-1,2,4-triazol-3-yl)-1-methoxypropane-2-sulfonamide or (1R,2S)-1-(5-chloropyrimidin-2-yl)-N-(4-(2,6-dimethoxyphenyl)-5-((1r,3S)-3-fluoro-3-methylcyclobutyl)-4H-1,2,4-triazol-3-yl)-1-methoxypropane-2-sulfonamide]", "pEC50": 8.59}
{"smiles": "COc1cccc(OC)c1-n1c(NS(=O)(=O)[C@@H](C)[C@H](OC)c2ncc(Cl)cn2)nnc1[C@H]1CC(=O)C1(C)C", "note": "(single isomer, unassigned) [Example 196.0, (1R,2S)-1-(5-chloropyrimidin-2-yl)-N-(4-(2,6-dimethoxyphenyl)-5-((R)-2,2-dimethyl-3-oxocyclobutyl)-4H-1,2,4-triazol-3-yl)-1-methoxypropane-2-sulfonamide or (1R,2S)-1-(5-chloropyrimidin-2-yl)-N-(4-(2,6-dimethoxyphenyl)-5-((S)-2,2-dimethyl-3-oxocyclobutyl)-4H-1,2,4-triazol-3-yl)-1-methoxypropane-2-sulfonamide]", "pEC50": 6.48}
{"smiles": "COc1cccc(OC)c1-n1c(NS(=O)(=O)[C@@H](C)[C@H](OC)c2ncc(Cl)cn2)nnc1[C@H]1CC(=O)C1(C)C", "note": "(single isomer, unassigned) [Example 197.0, (1R,2S)-1-(5-chloropyrimidin-2-yl)-N-(4-(2,6-dimethoxyphenyl)-5-((R)-2,2-dimethyl-3-oxocyclobutyl)-4H-1,2,4-triazol-3-yl)-1-methoxypropane-2-sulfonamide or (1R,2S)-1-(5-chloropyrimidin-2-yl)-N-(4-(2,6-dimethoxyphenyl)-5-((S)-2,2-dimethyl-3-oxocyclobutyl)-4H-1,2,4-triazol-3-yl)-1-methoxypropane-2-sulfonamide]", "pEC50": 6.06}
{"smiles": "COc1cccc(OC)c1-n1c(NS(=O)(=O)[C@@H](C)[C@H](OC)c2ncc(Cl)cn2)nnc1[C@H]1C[C@@](C)(F)C1", "note": "(single isomer, unassigned) [Example 198.0, (1R,2S)-1-(5-chloropyrimidin-2-yl)-N-(4-(2,6-dimethoxyphenyl)-5-((1s,3R)-3-fluoro-3-methylcyclobutyl)-4H-1,2,4-triazol-3-yl)-1-methoxypropane-2-sulfonamide or ((1R,2S)-1-(5-chloropyrimidin-2-yl)-N-(4-(2,6-dimethoxyphenyl)-5-((1r,3S)-3-fluoro-3-methylcyclobutyl)-4H-1,2,4-triazol-3-yl)-1-methoxypropane-2-sulfonamide]", "pEC50": 8.43}
{"smiles": "COc1cccc(OC)c1-n1c(NS(=O)(=O)[C@@H](C)[C@H](OC)c2ncc(Cl)cn2)nnc1[C@H]1CC[C@@H](C#N)CC1", "note": "(single isomer, unassigned) [Example 199.0, (1R,2S)-1-(5-chloropyrimidin-2-yl)-N-(5-((1r,4R)-4-cyanocyclohexyl)-4-(2,6-dimethoxyphenyl)-4H-1,2,4-triazol-3-yl)-1-methoxypropane-2-sulfonamide or (1R,2S)-1-(5-chloropyrimidin-2-yl)-N-(5-((1s,4R)-4-cyanocyclohexyl)-4-(2,6-dimethoxyphenyl)-4H-1,2,4-triazol-3-yl)-1-methoxypropane-2-sulfonamide]", "pEC50": 8.09}
{"smiles": "COc1ncnc(OC)c1-n1c(NS(=O)(=O)[C@@H](C)[C@H](OC)c2ncc(Cl)cn2)nnc1[C@H]1C[C@]2(CC2(F)F)C1", "note": "(single isomer, unassigned) [Example 204.0, (1R,2S)-1-(5-chloropyrimidin-2-yl)-N-(5-((3R,5s)-1,1-difluorospiro[2.3]hexan-5-yl)-4-(4,6-dimethoxypyrimidin-5-yl)-4H-1,2,4-triazol-3-yl)-1-methoxypropane-2-sulfonamide or (1R,2S)-1-(5-chloropyrimidin-2-yl)-N-(5-((3S,5r)-1,1-difluorospiro[2.3]hexan-5-yl)-4-(4,6-dimethoxypyrimidin-5-yl)-4H-1,2,4-triazol-3-yl)-1-methoxypropane-2-sulfonamide]", "pEC50": 7.47}
{"smiles": "COc1ncnc(OC)c1-n1c(NS(=O)(=O)[C@@H](C)[C@H](OC)c2ncc(Cl)cn2)nnc1[C@H]1C[C@]2(CC2(F)F)C1", "note": "(single isomer, unassigned) [Example 205.0, (1R,2S)-1-(5-chloropyrimidin-2-yl)-N-(5-((3R,5s)-1,1-difluorospiro[2.3]hexan-5-yl)-4-(4,6-dimethoxypyrimidin-5-yl)-4H-1,2,4-triazol-3-yl)-1-methoxypropane-2-sulfonamide or (1R,2S)-1-(5-chloropyrimidin-2-yl)-N-(5-((3S,5r)-1,1-difluorospiro[2.3]hexan-5-yl)-4-(4,6-dimethoxypyrimidin-5-yl)-4H-1,2,4-triazol-3-yl)-1-methoxypropane-2-sulfonamide]", "pEC50": 8.26}
{"smiles": "COc1cccc(OC)c1-n1c(NS(=O)(=O)[C@@H](C)[C@H](OC)c2ncc(Cl)cn2)nnc1[C@@H]1CC[C@H]1C", "note": "(single isomer, unassigned) [Example 208.0]", "pEC50": 8.57}
{"smiles": "COc1cccc(OC)c1-n1c(NS(=O)(=O)[C@@H](C)[C@H](OC)c2ncc(Cl)cn2)nnc1[C@H]1CC[C@H](OC)C1", "note": "(single isomer, unassigned) [Example 214.0]", "pEC50": 7.70}
